What was measured:
Type in all cases: in vivo
[1] = test system: Pharbitis purpurea; assay: Post-emergence herbicidal action against PHBPU
Summary of the method: (§1)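 Visual % activity versus untreated controls, scored about 3 weeks after spraying (0% = like control, 100% = dead). Plants grown in sandy loam in a greenhouse were treated at the one-leaf stage, 2 to 3 weeks post-sowing, with WP or EC formulations plus 0.5% additive at 600 l/ha.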

[2] = test system: Lolium rigidum; assay: Post-emergence herbicidal action against LOLRI; conditions: visual rating about 3 weeks after treatment
Summary of the method: as §1

[3] = test system: Avena fatua; assay: Post-emergence herbicidal action against AVEFA; conditions: visual rating about 3 weeks after treatment
Summary of the method: as §1

[4] = test system: Echinochloa crus-galli; assay: Post-emergence herbicidal action against ECHCG; conditions: visual rating about 3 weeks after treatment
Summary of the method: as §1

[5] = test system: DIGSA; assay: Post-emergence herbicidal action against DIGSA; conditions: visual rating about 3 weeks after treatment
Summary of the method: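 Greenhouse-grown plants sprayed at one-leaf stage (2–3 weeks after sowing) with WP or EC formulations as aqueous suspension/emulsion plus 0.5% additive, 600 l/ha water. Activity rated visually about 3 weeks later versus untreated controls, 100% = plants dead, 0% = like controls.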

[6] = test system: Alopecurus myosuroides; assay: Post-emergence herbicidal action against ALOMY; conditions: visual rating about 3 weeks after treatment
Summary of the method: as §1

[7] = test system: Polygonum convolvulus; assay: Post-emergence herbicidal action against POLCO
Summary of the method: as §1

[8] = test system: Stellaria media; assay: Post-emergence herbicidal action against STEME
Summary of the method: as §1

[9] = test system: Veronica persica; assay: Post-emergence herbicidal action against VERPE
Summary of the method: as §1

[10] = test system: Hordeum murinum; assay: Post-emergence herbicidal action against HORMU
Summary of the method: as §1

[11] = test system: Viola tricolor; assay: Post-emergence herbicidal action against VIOTR
Procedure: (§2) Post-Emergence Herbicidal Action Against Harmful Plants and Crop Plant Compatibility Seeds of monocotyledonous and dicotyledonous weeds and crop plants are placed in sandy loam in plastic or wood-fibre pots, covered with soil and cultivated in a greenhouse under controlled growth conditions. 2 to 3 weeks after sowing, the test plants are treated at the one-leaf stage. The compounds of the invention, formulated in the form of wettable powders (WP) or as emulsion concentrates (EC), are then sprayed onto the green parts of the plants as aqueous suspension or emulsion with addition of 0.5% additive at a water application rate of 600 l/ha (converted). After the test plants have been kept in the greenhouse under optimum growth conditions for about 3 weeks, the activity of the preparations is rated visually in comparison to untreated controls. For example, 100% activity=the plants have died, 0% activity=like control plants. [table]

[12] = test system: Setaria viridis; assay: Post-emergence herbicidal action against SETVI; conditions: visual rating about 3 weeks after treatment
Summary of the method: as §1

[13] = test system: Amaranthus retroflexus; assay: Post-emergence herbicidal action against AMARE
Summary of the method: as §1

[14] = test system: Matricaria inodora; assay: Post-emergence herbicidal action against MATIN
Procedure: as §2

[15] = test system: Abutilon theophrasti; assay: Post-emergence herbicidal action against ABUTH; conditions: 80 g a.i./ha, visual rating about 3 weeks after treatment
Summary of the method: as §1

[16] = 80 g a.i./ha, visual rating about 3 weeks after treatment

SMILES | Herbicidal action against [%] PHBPU ([1]; 80 g a.i./ha) | Herbicidal action against [%] LOLRI ([2]; 20 g a.i./ha) | Herbicidal action against [%] LOLRI ([2]; 80 g a.i./ha) | Herbicidal action against [%] AVEFA ([3]; 20 g a.i./ha) | Herbicidal action against [%] AVEFA ([3]; 80 g a.i./ha) | Herbicidal action against [%] ECHCG ([4]; 80 g a.i./ha) | Herbicidal action against [%] DIGSA ([5]; 20 g a.i./ha) | Herbicidal action against [%] DIGSA ([5]; 80 g a.i./ha) | Herbicidal action against [%] ALOMY ([6]; 20 g a.i./ha) | Herbicidal action against [%] ALOMY ([6]; 80 g a.i./ha) | Herbicidal action against [%] STEME ([8]; 20 g a.i./ha) | Herbicidal action against [%] STEME ([8]; 80 g a.i./ha) | Herbicidal action against [%] VERPE ([9]; 20 g a.i./ha) | Herbicidal action against [%] VERPE ([9]; 80 g a.i./ha) | Herbicidal action against [%] HORMU ([10]; 20 g a.i./ha) | Herbicidal action against [%] HORMU ([10]; 80 g a.i./ha) | Herbicidal action against [%] VIOTR ([11]; 20 g a.i./ha) | Herbicidal action against [%] SETVI ([12]; 20 g a.i./ha) | Herbicidal action against [%] SETVI ([12]; 80 g a.i./ha) | Herbicidal action against [%] AMARE [13, 16] | further results
CSCCOC(=O)C1C=CC(NC(=O)C2(C(F)(F)F)CC(c3cc(F)cc(C#N)c3)=NO2)C1 (mixture of isomers) [Example I-37] | 80% | 90% | 90% | 90% | 90% | 80% | 80% | 90% | 90% | 90% | 80% | 80% | 80% | 90% | 80% | 80% | 80% | 80% | 80% | 80% | Herbicidal action against [%] POLCO ([7]; 20 g a.i./ha): 80%; Herbicidal action against [%] POLCO ([7]; 80 g a.i./ha): 80%; Herbicidal action against [%] AMARE ([13]; 20 g a.i./ha): 80%
C=CC1(C(=O)NC2C=CC(C(=O)OCCSC)C2)CC(c2cc(C)cc(F)c2)=NO1 (mixture of isomers) [Example I-47] |  | 80% | 80% | 80% | 90% | 80% | 80% | 90% | 90% | 90% | 90% | 90% | 80% | 80% |  | 80% | 90% | 80% | 80% | 100% | Herbicidal action against [%] MATIN [14, 16]: 80%
CSCCOC(=O)C1=CC(NC(=O)C2(C)CC(c3cc(F)cc(F)c3)=NO2)CC1 (stereo not shown) [Example I-51] | 80% | 90% | 100% | 100% | 100% | 90% | 80% | 80% | 90% | 90% | 90% | 90% | 90% | 90% | 90% | 90% | 90% | 80% | 80% | 80% | Herbicidal action against [%] ECHCG ([4]; 20 g a.i./ha): 80%; Herbicidal action against [%] MATIN [14, 16]: 80%; Herbicidal action against [%] POLCO ([7]; 80 g a.i./ha): 80%
CSCCOC(=O)C1C=CC(NC(=O)C2(C)CC(c3cc(F)cc(Cl)c3)=NO2)C1 (stereo not shown) [Example I-32] | 80% | 90% | 90% | 90% | 90% | 80% | 80% | 80% | 90% | 100% | 80% | 90% | 80% | 90% | 80% | 80% | 80% | 80% | 80% | 80% | Herbicidal action against [%] ECHCG ([4]; 20 g a.i./ha): 80%; Herbicidal action against [%] MATIN ([14]; 20 g a.i./ha): 80%; Herbicidal action against [%] MATIN [14, 16]: 80%
C=CC1(C(=O)NC2CC=C(C(=O)OCCSC)C2)CC(c2cc(F)cc(F)c2)=NO1 (stereo not shown) [Example I-50] | 90% |  | 100% | 90% | 100% | 90% | 90% | 90% |  | 100% | 80% | 90% |  | 90% | 100% | 100% | 80% |  | 90% | 90% | Herbicidal action against [%] PHBPU ([1]; 20 g a.i./ha): 90%; Herbicidal action against [%] POLCO ([7]; 20 g a.i./ha): 80%; Herbicidal action against [%] POLCO ([7]; 80 g a.i./ha): 90%; Herbicidal action against [%] VIOTR ([11]; 80 g a.i./ha): 90%; Herbicidal action against [%] ABUTH [15]: 80%; Herbicidal action against [%] AMARE ([13]; 20 g a.i./ha): 90%
CSCCOC(=O)C1C=CC(NC(=O)C2(C)CC(c3cccc(F)c3)=NO2)C1 (stereo not shown) [Example I-34] | 90% | 100% | 100% | 90% | 90% | 80% | 80% | 80% | 100% | 100% | 90% | 90% | 90% | 90% | 80% | 80% | 90% | 80% | 80% |  | Herbicidal action against [%] PHBPU ([1]; 20 g a.i./ha): 90%; Herbicidal action against [%] ECHCG ([4]; 20 g a.i./ha): 80%; Herbicidal action against [%] POLCO ([7]; 20 g a.i./ha): 80%; Herbicidal action against [%] POLCO ([7]; 80 g a.i./ha): 90%; Herbicidal action against [%] VIOTR ([11]; 80 g a.i./ha): 80%; Herbicidal action against [%] ABUTH [15]: 80%
CSCCOC(=O)C1C=CC(NC(=O)C2(C)CC(c3cc(C#N)cc(C#N)c3)=NO2)C1 (mixture of isomers) [Example I-46] | 80% | 90% | 90% | 90% | 90% | 80% | 90% | 90% | 90% | 90% | 90% | 90% | 80% | 90% | 90% | 90% | 90% | 90% | 90% | 90% | Herbicidal action against [%] POLCO ([7]; 20 g a.i./ha): 80%; Herbicidal action against [%] POLCO ([7]; 80 g a.i./ha): 90%; Herbicidal action against [%] VIOTR ([11]; 80 g a.i./ha): 80%
COC1(C(=O)NC2C=CC(C(=O)OCCSC)C2)CC(c2cccc(F)c2)=NO1 (mixture of isomers) [Example I-36] | 80% |  |  |  | 80% |  |  |  |  | 80% | 80% | 80% | 80% | 80% |  |  | 80% |  |  |  | Herbicidal action against [%] PHBPU ([1]; 20 g a.i./ha): 80%; Herbicidal action against [%] MATIN [14, 16]: 80%; Herbicidal action against [%] ABUTH [15]: 80%
